molecular target: V-ATPase-dependent lysosomal acidification; test: cells; assay type: cell-based, human; details: 24 hr Lysotracker IC50; 1000 nM set as activity threshold (FIG. 11-14); read-out: Lyso IC50
Description: Determine effect on V-ATPase activity: Plecomacrolides are known inhibitors of V-ATPase that neutralize normally acidified lysosomes. […] Thus, analogs of the disclosure are further characterized by measuring their effects on lysosome acidification.
LysoTracker® is a fluorophore linked to a weak base that is partially protonated at neutral pH. This form of the probe is capable of freely permeating cell membranes of live cells. In acidic compartments, protonation creates a form that was impermeable causing the probe to accumulate inside the lysosome.

Compound | IC50 [nM]
19-Deoxy-20-ene Baf A1 | 341
19-Deoxy-21-Methoxy Baf A1 | 49.6
19-Deoxy-21-allylester Baf A1 | 152
C#CCCC(=O)O[C@H]1C[C@@H](O[C@@H]2C[C@](O)([C@@H](C)[C@H](O)[C@H](C)[C@H]3OC(=O)/C(OC)=C/C(C)=C/[C@@H](C)[C@@H](O)[C@@H](CC)[C@@H](O)[C@H](C)C/C(C)=C/C=C/[C@@H]3OC)O[C@H](/C=C/C)[C@H]2C)O[C@@H](C)[C@@H]1OC(N)=O [23-Alkyne CMA, 3′-pent-4-ynoate Concanamycins A-C] | 1.1
C#CCCC(=O)O[C@H]1C[C@@H](O[C@@H]2C[C@](O)([C@@H](C)[C@H](O)[C@H](C)[C@H]3OC(=O)/C(OC)=C/C(C)=C/[C@@H](C)[C@@H](O)[C@@H](CC)[C@@H](O)[C@H](C)C/C(C)=C/C=C/[C@@H]3OC)O[C@H](/C=C/C)[C@H]2C)O[C@@H](C)[C@@H]1OC(N)=O [23-Alkyne CMC, 3′-pent-4-ynoate Concanamycins A-C] | 5.72
C/C=C/[C@H]1O[C@@](O)([C@@H](C)[C@H](O)[C@H](C)[C@H]2OC(=O)/C(OC)=C/C(C)=C/[C@@H](C)[C@@H](O)[C@@H](C)[C@@H](O)[C@H](C)C/C(C)=C/C=C/[C@@H]2OC)C[C@@H](O[C@H]2C[C@@H](O)[C@H](OC(N)=O)[C@@H](C)O2)[C@@H]1C [CMB, Concanamycin B, reference compound] | 29.6
C/C=C/[C@H]1O[C@@](O)([C@@H](C)[C@H](O)[C@H](C)[C@H]2OC(=O)/C(OC)=C/C(C)=C/[C@@H](C)[C@@H](O)[C@@H](CC)[C@@H](O)[C@H](C)C/C(C)=C/C=C/[C@@H]2OC)C[C@@H](O[C@H]2C[C@@H](O)[C@H](O)[C@@H](C)O2)[C@@H]1C [CMC, Concanamycin C, reference compound] | 2.72

same assay, conditions: Homo sapiens, PBMC, 24 h, 24 hr Lysotracker IC50; 1000 nM set as activity threshold (FIG. 11-14); read-out: Lyso IC50

Compound | IC50 [nM]
C/C=C/[C@H]1O[C@@H]([C@@H](C)[C@H](O)[C@H](C)[C@H]2OC(=O)/C(O)=C/C(C)=C/[C@@H](C)[C@@H](O)[C@@H](CC)[C@@H](O)[C@H](C)C/C(C)=C/C=C/[C@@H]2OC)C[C@@H](O)[C@@H]1C [2-hydroxy-21-deoxy CMF, 21-deoxy-2-hydroxy-Concanamycin F] | ≥ 1000
C#CCCC(=O)O[C@@H]1[C@H](C)/C=C(C)/C=C(\OC)C(=O)O[C@H]([C@@H](C)[C@@H](O)[C@H](C)[C@@]2(O)C[C@@H](OC(=O)c3ccc(C4(C(F)(F)F)N=N4)cc3)[C@H](C)[C@@H](C(C)C)O2)[C@@H](OC)/C=C/C=C(\C)C[C@@H]1C [7 Alkyne 21-Y Bafilomycin Probe, 21-(3-(trifluoromethyl)-3H-diazirin-3-yl)benzoate-7-pent-4-ynoate-Bafilomycin] | ≥ 1000
CO/C1=C\C(C)=C\[C@@H](C)[C@@H](O)[C@@H](C)C/C(C)=C/C=C/[C@H](OC)[C@@H]([C@@H](C)[C@@H](O)[C@H](C)[C@H]2C[C@@H](O)[C@H](C)[C@@H](C(C)C)O2)OC1=O [19-Deoxy Baf A1, 19-deoxy Bafilomycin] | 111
C#CCCC(=O)O[C@@H]1C[C@H]([C@@H](C)[C@H](O)[C@H](C)[C@H]2OC(=O)/C(OC)=C/C(C)=C/[C@@H](C)[C@@H](O)[C@@H](C)C/C(C)=C/C=C/[C@@H]2OC)OC(C(C)C)[C@H]1C (stereo partly shown) [19-Deoxy-21(4-Pentynoate) Baf A1, 19-deoxy-21-pent-4-ynoate Bafilomycin] | 76.4
C#CCCC(=O)O[C@@H]1C[C@](O)([C@@H](C)[C@H](O)[C@H](C)[C@H]2OC(=O)/C(OC)=C/C(C)=C/[C@@H](C)[C@@H](O)[C@@H](C)C/C(C)=C/C=C/[C@@H]2OC)O[C@H](C(C)C)[C@H]1C [21 Alkyne Bafilomycin Probe, 21-pent-4-ynoate Bafilomycin] | 29.1
C#CCCC1(CCC(=O)O[C@@H]2C[C@](O)([C@@H](C)[C@H](O)[C@H](C)[C@H]3OC(=O)/C(OC)=C/C(C)=C/[C@@H](C)[C@@H](O)[C@@H](C)C/C(C)=C/C=C/[C@@H]3OC)O[C@H](C(C)C)[C@H]2C)N=N1 [21 Dual Linear Bafilomycin Probe, 21-(3-(3-(but-3-yn-1-yl)-3H-diazirin-3-yl)propanoate) Bafilomycin] | 28.3
C/C=C/[C@H]1O[C@@H]([C@@H](C)[C@H](O)[C@H](C)[C@H]2OC(=O)/C(OC)=C/C(C)=C/[C@@H](C)[C@@H](O)[C@@H](CC)[C@@H](O)[C@H](C)C/C(C)=C/C=C/[C@@H]2OC)C[C@@H](O[C@@H]2C[C@H](O)[C@@H](O)[C@H](C)O2)[C@@H]1C [21-Deoxy CMC, 21-deoxy CMC] | 7.04
CCCCCCCCC(=O)O[C@@H]1C[C@](O)([C@@H](C)[C@H](O)[C@H](C)[C@H]2OC(=O)/C(OC)=C/C(C)=C/[C@@H](C)[C@@H](O)[C@@H](C)C/C(C)=C/C=C/[C@@H]2OC)O[C@H](C(C)C)[C@H]1C [21-Nonanoate Baf A1, 21-nonanoate Bafilomycin] | 146
C/C=C/CC(=O)O[C@@H]1C[C@](O)([C@@H](C)[C@H](O)[C@H](C)[C@H]2OC(=O)/C(OC)=C/C(C)=C/[C@@H](C)[C@@H](O)[C@@H](C)C/C(C)=C/C=C/[C@@H]2OC)O[C@H](C(C)C)[C@H]1C [21-Penta-3-enoate Baf A1, 21-pent-3-enoate Bafilomycin] | 60.2
CCCCC(=O)O[C@@H]1C[C@](O)([C@@H](C)[C@H](O)[C@H](C)[C@H]2OC(=O)/C(OC)=C/C(C)=C/[C@@H](C)[C@@H](O)[C@@H](C)C/C(C)=C/C=C/[C@@H]2OC)O[C@H](C(C)C)[C@H]1C [21-Pentanoate Baf A1, 21-pentanone Bafilomycin] | 62.3
CO/C1=C\C(C)=C\[C@@H](C)[C@@H](O)[C@@H](C)C/C(C)=C/C=C/[C@H](OC)[C@@H]([C@@H](C)[C@@H](O)[C@H](C)[C@H]2C[C@@H](OC(=O)c3ccc(C4(C(F)(F)F)N=N4)cc3)[C@H](C)[C@@H](C(C)C)O2)OC1=O [21-Y Bafilomycin Probe, 21-(3-(trifluoromethyl)-3H-diazirin-3-yl)benzoate Bafilomycin] | ≥ 1000
C=C/C=C/C(=O)O[C@@H]1C[C@](O)([C@@H](C)[C@H](O)[C@H](C)[C@H]2OC(=O)/C(OC)=C/C(C)=C/[C@@H](C)[C@@H](O)[C@@H](C)C/C(C)=C/C=C/[C@@H]2OC)O[C@H](C(C)C)[C@H]1C [21-penta-2,4-dienoate Baf A1, 21-penta-2,4-dienoate Bafilomycin] | 25.1
C#CCCC(=O)O[C@H]1C[C@@H](O[C@@H]2C[C@](O)([C@@H](C)[C@H](O)[C@H](C)[C@H]3OC(=O)/C(OC)=C/C(C)=C/[C@@H](C)[C@@H](O)[C@@H](C)[C@@H](O)[C@H](C)C/C(C)=C/C=C/[C@@H]3OC)O[C@H](/C=C/C)[C@H]2C)O[C@@H](C)[C@@H]1OC(N)=O [23-Alkyne CMB, 3′-pent-4-ynoate Concanamycins A-C] | 5.75
C#CCCC1(CCC(=O)O[C@H]2C[C@@H](O[C@@H]3C[C@](O)([C@@H](C)[C@H](O)[C@H](C)[C@H]4OC(=O)/C(OC)=C/C(C)=C/[C@@H](C)[C@@H](O)[C@@H](C)[C@@H](O)[C@H](C)C/C(C)=C/C=C/[C@@H]4OC)O[C@H](/C=C/C)[C@H]3C)O[C@@H](C)[C@@H]2OC(N)=O)N=N1 [23-Dual Linear Probe CMB, 3′-(3-(3-(but-3-yn-1-yl)-3H-diazirin-3-yl)propanoate) Concanamycin B] | 23.2
C#CCCC1(CCC(=O)O[C@H]2C[C@@H](O[C@@H]3C[C@](O)([C@@H](C)[C@H](O)[C@H](C)[C@H]4OC(=O)/C(OC)=C/C(C)=C/[C@@H](C)[C@@H](O)[C@@H](CC)[C@@H](O)[C@H](C)C/C(C)=C/C=C/[C@@H]4OC)O[C@H](/C=C/C)[C@H]3C)O[C@@H](C)[C@@H]2OC(N)=O)N=N1 [23-Dual Linear Probe CMC, 3′-(3-(3-(but-3-yn-1-yl)-3H-diazirin-3-yl)propanoate) Concanamycin C] | 4.7
CO/C1=C\C(C)=C\[C@@H](C)[C@@H](O)[C@@H](C)C/C(C)=C/C=C/[C@H](OC)[C@@H]([C@@H](C)[C@@H](O)[C@H](C)[C@@]2(OC)C[C@@H](O)[C@H](C)[C@@H](C(C)C)O2)OC1=O [BafA2, Bafilomycin A2] | 25.3
C#CCCC1(CCC(=O)O[C@H]2C[C@@H](O[C@@H]3C[C@](O)([C@@H](C)[C@H](O)[C@H](C)[C@H]4OC(=O)/C(OC)=C/C(C)=C/[C@@H](C)[C@@H](O)[C@@H](CC)[C@@H](O)[C@H](C)C/C(C)=C/C=C/[C@@H]4OC)O[C@H](/C=C/C)[C@H]3C)O[C@@H](C)[C@@H]2O)N=N1 [Dual Linear Probe CMA, 3′-(3-(3-(but-3-yn-1-yl)-3H-diazirin-3-yl)propanoate) Concanamycin A] | 4.87

same assay, conditions: Homo sapiens, PBMC, 24 h; read-out: Lyso IC50

Compound | IC50 [nM]
CO/C1=C\C(C)=C\[C@@H](C)C(=O)[C@@H](C)C/C(C)=C/C=C/[C@H](OC)[C@@H]([C@@H](C)[C@@H](O)[C@H](C)[C@@]2(O)CC(=O)[C@H](C)[C@@H](C(C)C)O2)OC1=O [7,21-Dione Baf A1, 7,21-dione Bafilomycin] | ≥ 1000
CO/C1=C\C(C)=C\[C@@H](C)C(=O)[C@@H](C)C/C(C)=C/C=C/[C@H](OC)[C@@H]([C@@H](C)[C@@H](O)[C@H](C)[C@@]2(O)C[C@@H](O)[C@H](C)[C@@H](C(C)C)O2)OC1=O [7-One Baf A1, 7-one Bafilomycin] | ≥ 1000
CO/C1=C\C(C)=C\[C@@H](C)[C@@H](O)[C@@H](C)C/C(C)=C/C=C/[C@H](OC)[C@@H]([C@@H](C)[C@@H](O)[C@H](C)[C@@]2(O)C[C@@H](OC(C)=O)[C@H](C)[C@@H](C(C)C)O2)OC1=O [21-Acetyl Baf, 21-Acetyl Bafilomycin] | 22.7
C/C=C/[C@H]1O[C@@](O)([C@@H](C)[C@H](O)[C@H](C)[C@H]2OC(=O)/C(OC)=C/C(C)=C/[C@@H](C)[C@@H](O)[C@@H](CC)[C@@H](O)[C@H](C)C/C(C)=C/C=C/[C@@H]2OC)C[C@@H](O)[C@@H]1C [CMF, Concanamycin F] | 6.27

Reference: US20240067634A1, “INHIBITORS OF NEF DOWNMODULATION” (priority 2020, published 2024)
